In ChEMBL document CHEMBL5042533, “Structural Optimization and Structure-Activity Relationship Studies of 6,6-Dimethyl-4-(phenylamino)-6H-pyrimido[5,4-b][1,4]oxazin-7(8H)-one Derivatives as A New Class of Potent Inhibitors of Pan-Trk and Their Drug-Resistant Mutants” (J Med Chem, 2022):
Activity calls are given as the source filed them. The rule behind the calls is not given here.

Key:
BaF3 [1] = experiment: cells; details: Mus musculus, BaF3, 72 h
Description: Cytotoxicity against mouse BaF3 cells expressing LMNA fused TrkA G667S mutant assessed as inhibition of cell growth incubated for 3 days by CCK-8 assay

[2] = Toxicity in NOD-SCID mouse assessed as histological changes in kidney at 5 to 20 mg/kg, iv measured after 10 days by H and E staining based microscopic analysis; assay type: organism-based; details: in vivo, 240 h, dose 5-20 mg/kg, time 10 day
BaF3 [3] = experiment: In vivo inhibition of Trk signalling in NOD-SCID mouse allografted with mouse BaF3 cells expressing TEL fused TrkC G623R mutant assessed as reduction in p-Trk level at 5 to 20 mg/kg, iv qd measured after 10 days by IHC staining based analysis; assay type: functional, organism-based; details: dose 5-20 mg/kg, time 10.0 day
BaF3 [4] = experiment: cells; details: Mus musculus, BaF3, 72 h; remark: listed apart in the source
BaF3 [5] = experiment: Antitumour activity against larotrectinib-resistant mouse BaF3 cells expressing TEL fused TrkC G623R mutant allografted in NOD-SCID mouse assessed as reduction in tumor growth at 40 mg/kg/day, po qd measured every 2 or 3 days for 10 days; assay type: functional, organism-based; details: time 10.0 day
BaF3 [6] = experiment: cells; details: Mus musculus, BaF3, 72 h; remark: listed apart in the source
Description: Cytotoxicity against mouse BaF3 cells expressing CD74 fused TrkA assessed as inhibition of cell growth incubated for 3 days by CCK-8 assay

[7] = Toxicity in NOD-SCID mouse allografted with mouse BaF3 cells expressing TEL fused TrkA assessed as body weight loss at 40 mg/kg, po qd measured every 2 or 3 days for 10 days; assay type: organism-based; details: in vivo, 240 h, time 10 day
BaF3 [8] = experiment: cells; details: Mus musculus, BaF3, 72 h; remark: listed apart in the source
Description: Cytotoxicity against mouse BaF3 cells expressing TEL fused TrkC G696C assessed as inhibition of cell growth incubated for 3 days by CCK-8 assay

BaF3 [9] = experiment: In vivo inhibition of Trk signalling in NOD-SCID mouse allografted with mouse BaF3 cells expressing TEL fused TrkC G623R mutant assessed as reduction in p-Erk level at 5 to 20 mg/kg, iv qd measured after 10 days by IHC staining based analysis; assay type: functional, organism-based; details: dose 5-20 mg/kg, time 10.0 day
[10] = Toxicity in NOD-SCID mouse allografted with larotrectinib-resistant mouse BaF3 cells expressing TEL fused TrkC G623R mutant assessed as body weight loss at 40 mg/kg, po qd measured every 2 or 3 days for 10 days; assay type: organism-based; details: in vivo, 240 h, time 10 day
[11] = Toxicity in NOD-SCID mouse assessed as histological changes in lung at 5 to 20 mg/kg, iv measured after 10 days by H and E staining based microscopic analysis; assay type: organism-based; details: in vivo, 240 h, dose 5-20 mg/kg, time 10 day
BaF3 [12] = experiment: cells; details: Mus musculus, BaF3, 72 h; remark: listed apart in the source
Description: Cytotoxicity against mouse BaF3 cells expressing TEL fused TrkA assessed as inhibition of cell growth incubated for 3 days by CCK-8 assay

BaF3 [13] = experiment: In vivo inhibition of Trk signalling in NOD-SCID mouse allografted with mouse BaF3 cells expressing TEL fused TrkC G623R mutant assessed as reduction in p-Akt level at 5 to 20 mg/kg, iv qd measured after 10 days by IHC staining based analysis; assay type: functional, organism-based; details: dose 5-20 mg/kg, time 10.0 day
BaF3 [14] = experiment: cells; details: Mus musculus, BaF3, 72 h; remark: listed apart in the source
in vitro = details: mouse, BaF3 cells
Description: Cytotoxicity against mouse BaF3 assessed as inhibition of cell growth incubated for 3 days by CCK-8 assay

BaF3 [15] = experiment: cells; details: Mus musculus
Description: Cytotoxicity against mouse BaF3 cells harboring TEL fused TrkC G613R mutant assessed as inhibition of cell growth by MTT assay

BaF3 [16] = experiment: cells; details: Mus musculus, BaF3, 72 h; remark: listed apart in the source
Description: Cytotoxicity against mouse BaF3 cells expressing TEL fused TrkC G623R assessed as inhibition of cell growth incubated for 3 days by CCK-8 assay

BaF3 [17] = experiment: cells; details: Mus musculus, BaF3, 72 h; remark: listed apart in the source
Description: Cytotoxicity against mouse BaF3 cells expressing TEL fused TrkC assessed as inhibition of cell growth incubated for 3 days by CCK-8 assay

[18] = Toxicity in NOD-SCID mouse assessed as histological changes in spleen at 5 to 20 mg/kg, iv measured after 10 days by H and E staining based microscopic analysis; assay type: organism-based; details: in vivo, 240 h, dose 5-20 mg/kg, time 10 day
BaF3 [19] = experiment: Antitumour activity against mouse BaF3 cells expressing TEL fused TrkA allografted in NOD-SCID mouse assessed as reduction in tumor progression at 40 mg/kg/day, po qd measured every 2 or 3 days for 10 days; assay type: functional, organism-based; details: time 10.0 day
cells = details: Homo sapiens, KM12-Luc, 72 h
Description: Cytotoxicity against human KM12-Luc cells expressing TPM3 fused TrkA assessed as inhibition of cell growth incubated for 3 days by CCK-8 assay

BaF3 [20] = experiment: Cytotoxicity against mouse BaF3 cells expressing LMNA fused TrkA F589L mutant assessed as inhibition of cell growth incubated for 3 days by CCK-8 assay; assay type: functional, cell-based; details: BaF3, 72 h
[21] = Toxicity in NOD-SCID mouse assessed as histological changes in heart at 5 to 20 mg/kg, iv measured after 10 days by H and E staining based microscopic analysis; assay type: organism-based; details: in vivo, 240 h, dose 5-20 mg/kg, time 10 day
[22] = Toxicity in NOD-SCID mouse assessed as histological changes in liver at 5 to 20 mg/kg, iv measured after 10 days by H and E staining based microscopic analysis; assay type: organism-based; details: in vivo, 240 h, dose 5-20 mg/kg, time 10 day

IC50 (BaF3 [1]): 30 nM
IC50 (BaF3 [4]): 15 nM
IC50 (BaF3 [6]): 1 nM
IC50 (BaF3 [8]): 50 nM
IC50 (BaF3 [12]): 9 nM
IC50 (BaF3 [14]): 109 nM
IC50 at 3 days (in vitro): > 10000 nM
IC50 (BaF3 [15]): 18 nM
IC50 (BaF3 [16]): 18 nM
IC50 (BaF3 [17]): 4 nM
IC50 (cells): 5 nM
SMILES: C[C@@H]1CCc2ncc(F)cc2[C@H]2CCCN2c2ccn3ncc(c3n2)C(=O)N1 [SELITRECTINIB]
Activity [2]: Non-Toxic
inhibition (BaF3 [3]): Active
Activity (BaF3 [5]): Active
Activity [7]: Non-Toxic
inhibition (BaF3 [9]): Active
Activity [10]: Non-Toxic
Activity [11]: Non-Toxic
inhibition (BaF3 [13]): Active
Activity [18]: Non-Toxic
Activity (BaF3 [19]): Active
IC50 (BaF3 [20]): 17 nM
Activity [21]: Non-Toxic
Activity [22]: Non-Toxic
